For experiment [1], the system named is CARP-1, cyclin B1, Cdc20, Cdh1, APC-2, CDKIs, caspases, p38, Bcl2 family proteins. Briefly: Western blot of protein levels in treated cells. The experiment is classed as cell-based. As to the method:
(§1) Logarithmically growing cells were either untreated or treated with different agents for various time periods. The cells were lysed to prepare protein extracts. IP was carried out by incubating approximately 1 mg of the protein lysate with appropriate antibodies, and the immunoprecipitates or cell lysates were then electrophoresed on 9-12% SDS-polyacrylamide gels, and transferred to nitrocellulose membranes. The membranes were subsequently probed with various antibodies to determine expression/presence of the corresponding proteins. The cell growth inhibition was assessed by using MTT assay. Briefly, MTT (3-[4,5-Dimethylthiazol-2-yl]-2,5diphenyltetrazolium bromide) was dissolved in sterile 1×PBS to prepare a stock solution of 5 mg/ml. The solution was subsequently filtered through 0.2 μm filter and stored at 2-8° C. 4−5×10^2 cells were seeded in 96-well plates. After 72 h incubation with or without different agents, MTT stock solution was added to each culture being assayed to equal one tenth the original culture volume, followed by incubation of cells at 37° C. for another 2 h. At the end of the incubation, the media was removed and cells were treated with 100-200 μl of DMSO to solubilize the dye. The assessment of the live cells was derived by measuring the absorbance of the converted dye at wavelength of 570 nm.
(In western blotting, separated proteins are transferred to a membrane and probed.)

Another experiment deals with T1, Gst-APC-2 (685-754) (Homo sapiens, UniProt Q9UJX6).
T1 construct: immobilizing the Gst-APC-2 (685-754) peptide with Gst-beads; made in house; host or cells: E. coli BL-21 (DE3)
Kind of experiment: In vitro binding of SMIs, immobilized Gst-APC-2 pre-incubated with CFM. The conditions noted are these: WB with anti HA-tag. The procedure:
The CFM-4 and 5 were separately dissolved in DMSO to obtain a stock of 20-50 mM. For in vitro binding experiments we utilized affinity-purified Gst-APC-2 (685-754) and His-TAT-HA-tagged A-epitope (WT) peptide. Ten nanogram of the His-TAT-HA-tagged A-epitope (WT) peptide was first allowed to bind with Ni-NTA beads (ProBond, InVitrogen), and then the reaction was incubated with DMSO (control), 100 μM CFM-4, or 100 μM CFM-5 for 30 min at RT. The reactions were then subjected to three washes with the binding buffer, followed by incubation with 10 ng of affinity-purified Gst-APC-2 (685-754) peptide for 30 min at RT. The reactions were washed again for three times with PBS, eluted and analyzed on a SDS-PAGE followed by western blotting (WB) with anti-Gst antibodies. A similar strategy was performed by immobilizing the Gst-APC-2 (685-754) peptide with Gst-beads. The beads were washed, incubated with DMSO or the CFMs, and the reactions washed again. The reactions were then allowed to incubate with affinity purified A-epitope peptide, and the complexes analyzed by SDS-PAGE followed by WB with anti HA-tag antibodies.

In experiment [2] the test system is HBC cells transfected with scrambled, CARP-1 or Cdh1 SiRNAs. Kind of experiment: MTT assay in SiRNA-transfected cells. In kind it is cell-based, human. The procedure:
as §1
To test this possibility, cells were transfected with 100 nM each of the CARP-1 or the scrambled SiRNAs as detailed in methods. The SiRNA-transfected cells were then either untreated or treated with 20 μM CFM-4 for 24 h followed by determination of levels of CARP-1 and cyclin B1 proteins. […] In a separate experiment, cells were similarly transfected with CARP-1 SiRNA or scrambled SiRNAs followed by treatment with CFM-4 essentially as in FIG. 6A, and cell viabilities were determined by the MTT assay. […] In a separate experiment, cells were similarly transfected with Cdh1 SiRNA or scrambled SiRNAs followed by treatment with CFM-4 essentially as in FIG. 6C, and cell viabilities were determined by the MTT assay.
Background: Formazan colour is commonly taken as a measure of viable cells.

For experiment [3], the system named is immortalized, non-tumorigenic mammary epithelial MCF-10A cells. Kind of experiment: MTT cell viability assay, non-tumorigenic cells. In kind it is cell-based, human. As to the method:
as §1, with “The solution was subsequently filtered through 0.2 μm filter and stored at 2-8° C. 4−5×10^2 cells were seeded in 96-well plates. After 72 h incubation with or without different agents, MTT stock solution was added to each culture being assayed to equal one tenth the original culture volume, followed by incubation of cells at 37° C. for another 2 h. At the end of the incubation, the media was removed and cells were treated with 100-200 μl of DMSO to solubilize the dye.” left out
To test whether CFMs that interfere with CARP-1 binding with APC-2 modulate cell growth, HBC, colon, prostate, pancreatic cancer, MPM and lymphoma cells, as well as the immortalized, mammary epithelial MCF-10A cells were utilized. The cells were either treated with vehicle (DMSO) or various doses of the respective compound for a period of 72 h, and percent of live/viable cells for each compound was determined relative to the untreated controls as described in Methods.

These results are taken from patent US9598441B2, “Therapeutic compounds and methods” (Wayne State University, priority 2011, dated 2017).

T1 sequence (Q9UJX6 685-754): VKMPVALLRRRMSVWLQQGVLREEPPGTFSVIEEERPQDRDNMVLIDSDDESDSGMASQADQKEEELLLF

Regarding `O=C1N(Cc2ccccc2Cl)c2ccccc2C12NN=C(c1ccccc1)S2` (stereo not drawn) [CFM-4, 1-(2-chlorobenzyl)-5′-phenyl-3′H-spiro[indoline-3,2′-[1,3,4]thiadiazol]-2-one], in experiment [1], the “APC-2 levels (WB)” value was “unaffected”, the “Bax expression (WB)” value was “failed to stimulate Bax expression”, the “Cdc20 levels (WB)” value is given as “significantly reduced” and the “Cdh1 levels (WB)” value is “modest decline”. In addition, in experiment [1], the “cleavage of caspases (WB)” value was “cleavage of caspases 9 and 8”; the “tBid levels (WB)” value was “modest increase in tBid levels”. In experiment [1] (50 nM velcade 6 h or 24 h, 20 μM CFM-4 24 h), the “CARP-1 levels (WB)” value is listed as “robust increase in CARP-1 levels”. Also, the “p38 activation (WB)” value in experiment [1] (20 μM, from 6 h, sustained through 24 h) was “activation (phosphorylation) of p38”. In experiment [1] (0.5-1.0 h exposure), the “levels of p21WAF1/CIP1 and p27KIP1 CDKIs (WB)” value is “elevated”. Moreover, the “levels of p21WAF1/CIP1 and p27KIP1 CDKIs (WB)” value in experiment [1] (3 h and beyond) is given as “decline”. Also, the “cyclin B1 levels (WB)” value in experiment [1] (6 h and subsequent treatment periods) is “depleted cyclin B1”. In addition, in experiment [1] (12 h or 24 h treatments), the “levels of BimEL (WB)” value is recorded as “declined significantly” and the “levels of Bims isoform (WB)” value was “concomitant increase”. In addition, the “levels of E2 ubiquitin ligase UbCH10 (WB)” value in experiment [1] (alone or in combination with caspase inhibitors) is on record as “not affected”. The “cleavage of PARP1 (WB)” value in experiment [1] (cells transfected with scrambled SiRNAs) is on record as “robust cleavage of PARP1”. Moreover, in experiment [1] (different cells), the “levels of Bcl2, BclXL, Noxa, and Puma proteins (WB)” value is given as “failed to modulate levels”. Also, in experiment [1] (drug (ADR or TAM)-resistant MCF-7 cells), the “CARP-1 and cyclin B1 levels (WB)” value was “elevated CARP-1 and reduced cyclin B1 levels”. Also, the “cyclin B1 levels (WB)” value in experiment [1] (prostate and pancreatic cancer cells) is “induced cyclin B1 loss”. Further, the “CARP-1 levels (WB)” value in experiment [1] (time course, 6 h and subsequent treatment periods) was “stimulated CARP-1 levels”. Besides, at Gst-APC-2 (685-754), the “binding of immobilized Gst-APC-2 (685-754) with A-epitope peptide after pre-incubation with compound” value was “failed to abolish its binding”. Further, the “growth of cells transfected with scrambled SiRNAs (MTT)” value in experiment [2] (20 μM CFM-4, 24 h) is reported as “suppressed growth”. The “growth inhibition in CARP-1 SiRNA-transfected cells (MTT)” value in experiment [2] (CARP-1 knockdown, 20 μM CFM-4, 24 h) is “blocked CFM-4-dependent inhibition of cell growth”. Moreover, in experiment [2] (Cdh1 knockdown), the “growth inhibition in Cdh1 SiRNA-transfected cells (MTT)” value is on record as “blocked CFM-4-dependent inhibition of HBC cell growth”. Also, the “growth of MCF-10A cells (MTT)” value in experiment [3] is “failed to attenuate growth”.
